Experimental data reported in US20240317826A1, “COMPOSITIONS AND METHODS FOR TREATING AND/OR I[…] AGENT FOR TREATING HIV-1 INFECTIONS” (priority 2021, published 2024).
Where no end group is shown, it is not given here.

Assays:
IN-TAR RNA interaction = molecular target: T1, IN-TAR RNA interaction (Human immunodeficiency virus type 1 group M subtype B, UniProt P04585); assay: Alpha interaction assay: effect of stapled peptides on IN-TAR RNA interaction; assay type: binding, HIV-1; conditions: in vitro
T1 construct: made in house; host or cells: bacteria (E. coli inferred from the pGEX vector)
Description: (§1) FIG. 8A-FIG. 8D show quantitative alpha interaction assay to determine the effect of stapled peptides on the interaction of IN and IN-CTD with INI1 and INI1183-304 or TAR RNA. […] Fixed concentrations of GST-IN, 6His-INI1, and TAR RNA were incubated with increasing concentration of stapled peptides and the interaction was detected as Alpha Score. The IC50 values were determined by fitting the data to a four-parameter dose-response curve using Graph Pad prism. All the graphs represent the average of three independent experiments (Mean+/−SEM).
(§2) AlphaScreen proximity assay to detect the protein-protein and protein-RNA interactions. AlphaScreen assay was carried out using PerkinElmer Alpha-Lisa-6His Acceptor beads (Catalogue #AL128C), Alpha-Screen-GST donor beads (Catalogue #6765300), GST-tagged and His-tagged proteins for protein-protein interactions; and Alpha-Screen Streptavidin donor beads (Catalogue #6760002 S), Alpha-Lisa-GST acceptor beads (Catalogue #AL110C), Biotin-labeled RNA and GST-tagged proteins for protein-RNA interactions. The reaction was carried out according to the manufacturer's protocol in a reaction buffer contacting (25 mM HEPES pH 7.4, 100 mM NaCl (or 500 mM NaCl), 1 mM DTT, 1 mM MgCl2 and BSA 1 mg ml/ml). The mixture of proteins or protein and RNA were incubated for 1 hr at room temperate with shaking in a multi micro-plate shaker and then 20 ag ml/ml accepter beads were added and incubated for additional 1 h with shaking. Finally, 20 ag ml^−1 of donor beads were added and further incubated for 1 hr. The Alpha score readings were measured using Alpha-compatible Envision 2105 multi-plate reader (Perkin-Elmer). All the experiments related to this method were carried out 3 to 5 times and data were analyzed by using Graph Pad Prism 9 version 9.0.0 (GraphPad Software, CA). The RNA sequences used in this assay are listed in the Table 6d and were obtained from Integrated DNA technology.
(§3) These peptides were tested for their ability to disrupt the interaction between IN-INI1 and IN-TAR RNA in vitro.

IN-INI1 interaction = molecular target: T2, IN-INI1 interaction (Human immunodeficiency virus type 1 group M subtype B, UniProt P04585); assay: Alpha interaction assay: effect of stapled peptides on IN-INI1 interaction; assay type: binding, HIV-1; conditions: in vitro
T2 construct: made in house; host or cells: bacteria (E. coli inferred from the pGEX vector)
Description: as §1, §2, §3

Substance | IC50, inhibition of IN-TAR RNA interactions (IN-TAR RNA interaction) | IC50, inhibition of IN-INI1 interactions (IN-INI1 interaction) | inhibition of IN-TAR RNA interactions (IN-TAR RNA interaction) | inhibition of IN-INI1 interactions (IN-INI1 interaction)
lys-Leu-Met-Thr-Pro-Glu-R8-Met-Phe-Glu-Ile-Leu-S5-Cys-Asp-Leu-Asn [SP39] | low nanomolar | low nanomolar |  | 
lys-Leu-Met-Thr-Pro-Glu-Met-Phe-Ser-Glu-Ile-Leu-Cys-Asp-Leu-Asn (KLMTPEMFSEILCDLN; not fully specified; printed as lys-Leu-Met-Thr-Pro-Glu-Met-Phe-Ser-Glu-Ile-Leu-Cys-Asp-Leu-Asn) [SP80, Linear peptide (without stapling) derived from Alpha helix 1 of INI1 Rpt-1 domain] |  |  | did not inhibit | did not inhibit
